Data taken from ChEMBL document CHEMBL5143734, “Seco-Lupane Triterpene Derivatives Induce Ferroptosis through GPX4/ACSL4 Axis and Target Cyclin D1 to Block the Cell Cycle” (J Med Chem, 2022).

Key:
Type in all cases: functional, cell-based
A549 = assay: Cytotoxicity against human A549 cells assessed as reduction in cell viability by CCK-8 assay
PANC-1 = assay: Cytotoxicity against human PANC-1 cells assessed as reduction in cell viability by CCK-8 assay
MCF7 = assay: Cytotoxicity against human MCF7 cells assessed as reduction in cell viability by CCK-8 assay
PC-3M = assay: Cytotoxicity against human PC-3M cells assessed as reduction in cell viability by CCK-8 assay
HepG2 = assay: Cytotoxicity against human HepG2 cells assessed as reduction in cell viability by CCK-8 assay

Structure (SMILES)	IC50 (A549)	IC50 (PANC-1)	IC50 (MCF7)	IC50 (PC-3M)	IC50 (HepG2)
C=C(C)[C@@H]1CC[C@]2(C(=O)OCCCCCCCCCCn3cc(CCN)c4ccccc43)CC[C@]3(C)[C@H](C[C@H]4OC(=O)C[C@@H](O)[C@]5(C)[C@@H]4[C@@]3(C)CC[C@H]5C(=C)C)[C@@H]12	6.59 µM	5.59 µM	5.48 µM	5.69 µM	1.68 µM
C=C(C)[C@@H]1CC[C@]2(C(=O)OCCCCCn3cncn3)CC[C@]3(C)[C@H](C[C@@H](O)[C@@H]4[C@@]5(C)C(CC(=O)OC)OC(C)(C)C5CC[C@]43C)[C@@H]12 (stereo not given in full)	57.9 µM	90 µM	81.6 µM	32.3 µM	37.2 µM
C=C(C)[C@@H]1CC[C@]2(C(=O)OCCCCCn3cnc(C)c3)CC[C@]3(C)[C@H](C[C@H]4OC(=O)C[C@@H](O)[C@]5(C)[C@@H]4[C@@]3(C)CC[C@H]5C(=C)C)[C@@H]12	12.9 µM	26.5 µM	95.8 µM	14.8 µM	10.6 µM
C=C(C)[C@@H]1CC[C@]2(C(=O)OCCCn3cncn3)CC[C@]3(C)[C@H](C[C@H]4OC(=O)C[C@@H](O)[C@]5(C)[C@@H]4[C@@]3(C)CC[C@H]5C(=C)C)[C@@H]12	45.2 µM	140 µM	51.2 µM	34 µM	> 200 µM
C=C(C)[C@@H]1CC[C@]2(C(=O)O)CC[C@]3(C)[C@H](C[C@H]4OC(=O)C[C@@H](O)[C@]5(C)[C@@H]4[C@@]3(C)CC[C@H]5C(=C)C)[C@@H]12	145 µM	> 200 µM	> 200 µM	134 µM	> 200 µM
C=C(C)[C@@H]1CC[C@]2(C(=O)OCCCCCn3ccnc3C)CC[C@]3(C)[C@H](C[C@@H](O)[C@@H]4[C@@]5(C)C(CC(=O)OC)OC(C)(C)C5CC[C@]43C)[C@@H]12 (stereo not given in full)	34.5 µM	43.1 µM	53.8 µM	37.8 µM	20.2 µM
C=C(C)[C@@H]1CC[C@]2(C(=O)OCCCCn3cncn3)CC[C@]3(C)[C@H](C[C@H]4OC(=O)C[C@@H](O)[C@]5(C)[C@@H]4[C@@]3(C)CC[C@H]5C(=C)C)[C@@H]12	31.3 µM	60.5 µM	46.2 µM	18.1 µM	110 µM
C=C(C)[C@@H]1CC[C@]2(C(=O)OCCCCCCn3cnc(C)c3)CC[C@]3(C)[C@H](C[C@H]4OC(=O)C[C@@H](O)[C@]5(C)[C@@H]4[C@@]3(C)CC[C@H]5C(=C)C)[C@@H]12	14.2 µM	13.3 µM	44.9 µM	12.2 µM	3.64 µM
C=C(C)[C@@H]1CC[C@]2(C(=O)OCCCCCCn3cnc(C)c3)CC[C@]3(C)[C@H](C[C@@H](O)[C@@H]4[C@@]5(C)C(CC(=O)OC)OC(C)(C)C5CC[C@]43C)[C@@H]12 (stereo not given in full)	25 µM	17.7 µM	33.4 µM	18.4 µM	12.8 µM
C=C(C)[C@@H]1CC[C@]2(C(=O)OCCCCCCCCCCn3cnc(C)c3)CC[C@]3(C)[C@H](C[C@H]4OC(=O)C[C@@H](O)[C@]5(C)[C@@H]4[C@@]3(C)CC[C@H]5C(=C)C)[C@@H]12	16.7 µM	9.92 µM	35.8 µM	13.9 µM	5.79 µM
C=C(C)[C@@H]1CC[C@]2(C(=O)OCCCCCCn3cc(CCN)c4ccccc43)CC[C@]3(C)[C@H](C[C@H]4OC(=O)C[C@@H](O)[C@]5(C)[C@@H]4[C@@]3(C)CC[C@H]5C(=C)C)[C@@H]12	6.5 µM	7.02 µM	5.87 µM	6 µM	1.03 µM
